Assay results published in publication PMC6882465, “Towards discovery of new leishmanicidal scaffolds able to inhibit Leishmania GSK-3” (Journal of Enzyme Inhibition and Medicinal Chemistry, 2019).
Like-named read-outs stand apart in the source and are kept apart here.

Experiments:
LdGSK-3 [1] = target: T1, LdGSK-3 (Leishmania donovani, UniProt A6N857); test: Inhibition of LdGSK-3 with Kinase Glo; assay type: biochemical; conditions: for LdGSK-3 % inhibition: @10 µM
Experimental: Assessment of inhibition of LdGSK-3 with Kinase Glo^TM
The reaction was allowed to proceed for 30 min at 30 °C, then it was incubated at room temperature for another 10 min after addition of Kinase Glo reagents (Promega, Ref. V6712). ATP consumption by LdGSK-3 was measured indirectly through end-point luminescence measurement of each well in a Varioskan Flash microplate reader (Thermo).

[2] = test system: L. infantum promastigotes; test: Leishmanicidal assay on promastigotes (inhibition of MTT reduction); assay type: cell-based, Leishmania infantum; conditions: 72 h
Experimental: (§1) Leishmania parasites were resuspended with the corresponding drug concentration at 2 × 10^6 parasites/mL (final concentration) in their respective growth media in 96 microwell plates (200 µL/well). The parasites were allowed to growth for 72 h at 26 °C for promastigotes and 96 h at 32 °C for axenic amastigotes. Afterwards, inhibition of proliferation was measured by the inhibition of MTT reduction by the parasites. […] MTT reduction was allowed to proceed for 2 h at the respective temperature, and the resulting formazan solubilised by addition of 50 µL/well of 10% SDS. Afterwards, the plate was read at 595 nm in a BioRad Microplate-reader, model 680. Samples were made by triplicate and assays were repeated at least twice.

[3] = test system: L. pifanoi axenic amastigotes; test: Leishmanicidal assay on axenic amastigotes (inhibition of MTT reduction); assay type: cell-based, Leishmania pifanoi; conditions: 96 h, read-out: L. pifanoi amast. ax EC50
Experimental: as §1

[4] = test system: peritoneal murine macrophages (PMM); test: Cytotoxicity on peritoneal murine macrophages (MTT); assay type: cell-based, Balb/c mice; conditions: 48 h
Experimental: Peritoneal murine macrophages were obtained from 8-week-old Balb/c mice previously elicited by i.p. injection with 1 mL of 10% thioglycollate medium three days prior to extraction. Macrophages were obtained by peritoneal washing (10 mL PBS, 4 °C). After extraction, macrophages were maintained in RPMI 1640-HIFCS at 37 °C and 5% CO2.
For peritoneal macrophages, the cells were seeded in 96 microwell plates at 1 × 10^5 cells/well and incubated (37 °C, 5% CO2) with the drug for 48 h. The toxicity was evaluated by the inhibition of MTT reduction as above.

hGSK-3β [5] = target: T2, hGSK-3β (Homo sapiens, UniProt P49841); conditions: Table S1, cited from earlier work
hGSK-3β [6] = target: T2, hGSK-3β; test: hGSK-3β inhibition; assay type: biochemical
LdGSK-3 [7] = target: T1, LdGSK-3; parameters: method as in PMID 19445946; conditions: cited from earlier work
[8] = Table S1, read-out: LdGSK-3 IC50

T1 sequence (A6N857 entry or part of it): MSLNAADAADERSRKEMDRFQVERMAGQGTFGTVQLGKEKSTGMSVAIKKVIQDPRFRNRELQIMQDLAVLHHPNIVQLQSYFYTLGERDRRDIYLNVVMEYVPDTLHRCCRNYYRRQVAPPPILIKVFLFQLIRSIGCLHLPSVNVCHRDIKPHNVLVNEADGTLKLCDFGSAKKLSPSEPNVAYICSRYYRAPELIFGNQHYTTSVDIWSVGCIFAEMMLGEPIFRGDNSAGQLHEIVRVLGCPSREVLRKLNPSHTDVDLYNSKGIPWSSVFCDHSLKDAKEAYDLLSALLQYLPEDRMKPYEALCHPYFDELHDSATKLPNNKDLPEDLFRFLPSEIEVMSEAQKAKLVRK
T2 sequence (P49841 whole entry): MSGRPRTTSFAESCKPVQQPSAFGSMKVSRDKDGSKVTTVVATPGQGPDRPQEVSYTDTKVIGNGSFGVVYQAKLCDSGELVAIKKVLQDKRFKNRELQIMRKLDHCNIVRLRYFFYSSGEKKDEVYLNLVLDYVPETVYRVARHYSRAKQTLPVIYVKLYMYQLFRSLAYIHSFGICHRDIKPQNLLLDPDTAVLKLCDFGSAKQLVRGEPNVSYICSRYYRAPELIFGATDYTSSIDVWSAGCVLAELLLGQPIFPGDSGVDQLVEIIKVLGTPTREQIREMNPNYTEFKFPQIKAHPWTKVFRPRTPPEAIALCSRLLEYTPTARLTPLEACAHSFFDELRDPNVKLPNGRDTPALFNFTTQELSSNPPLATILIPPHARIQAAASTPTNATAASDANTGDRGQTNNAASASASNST

SMILES | LdGSK-3 % inhibition (LdGSK-3 [1]; Table S1) [%] | EC50 ([2]; Table S1) [µM] | EC50 ([3]; Table S1) [µM] | EC50 ([4]; Table S1) [µM] | IC50 (hGSK-3β [6]; Table S1, reference not given) [µM] | further results
COc1ccc(-n2cnc3cc(C(=O)CBr)ccc32)cc1 [Compound 17] | 35.5 | 3.4 ± 0.5 | 4.5 ± 0.2 | > 25 | – | IC50 (hGSK-3β [5]; ref 8 (supplement)): 0.58 ± 0.07 µM
O=C(CCl)c1cc(Br)c(Br)s1 [Compound 10] | – | 8.6 ± 0.3 | 1.2 ± 0.2 | 7.9 ± 0.6 | – | IC50 (LdGSK-3 [1]; [8]): 3 ± 0.4 µM
O=C(CCl)c1ccc(Br)s1 [Compound 6] | – | 0.9 ± 0.1 | 1.7 ± 0.1 | 6.8 ± 0.4 | – | IC50 (LdGSK-3 [1]; [8]): 12.5 ± 2.4 µM; IC50 (hGSK-3β [5]; ref 4 (supplement)): 10 µM
CCOC(=O)c1sc(NC(=O)CCc2cccc(Cl)c2)nc1C [Compound 21] | < 20 | > 50 | > 50 | – | 7.23 ± 0.26 | –
CC(=O)C1=C(c2c[nH]c3ccccc23)C(=O)NC1=O [Compound 16] | < 20 | > 50 | 2.5 ± 2.7 | > 50 | – | IC50 (hGSK-3β [5]; ref 8 (supplement)): 4.47 ± 0.35 µM
O=C(Cc1cccc(Cl)c1)Nc1nc2ccc(C(F)(F)F)cc2s1 [Compound 23] | < 20 | > 50 | > 50 | – | 9.75 ± 0.26 | –
COc1ccc(CNC(=O)Nc2nc(C)c(C(=O)C(Br)Br)s2)cc1 [Compound 20] | < 20 | > 50 | > 50 | – | 6.22 ± 0.2 | –
CCCCCCCC(=O)NNC(=O)c1c(O)c2ccccc2n(C)c1=O [Compound 12] | < 20 | > 50 | 20.8 | – | – | IC50 (hGSK-3β [5]; ref 7 (supplement)): 8.7 ± 0.4 µM
O=C(CBr)C1=C(c2c[nH]c3ccccc23)C(=O)NC1=O [Compound 15] | – | > 50 | > 50 | – | – | IC50 (LdGSK-3 [1]; [8]): 17.7 ± 2.7 µM; IC50 (hGSK-3β [5]; ref 8 (supplement)): 0.047 ± 0.007 µM
COc1ccc(CNC(=O)Nc2nc(C)c(C(=O)CBr)s2)cc1 [Compound 19] | < 20 | > 25 | 14.4 ± 2.6 | 32 ± 3.1 | 9.72 ± 0.57 | –
O=c1sn(-c2cccc3ccccc23)c(=O)n1Cc1ccccc1 [Compound 2, tideglusib] | – | – | – | – | – | IC50 (LdGSK-3 [1]): 0.32 ± 0.05 µM; EC50 ([2]; Leishmania infantum, Table 1): 17.6 ± 2.3 µM; EC50 ([3]; Leishmania pifanoi, Table 1): 7.1 ± 1.8 µM; EC50 ([4]; Mus musculus, Macrophage, Table 1): > 50 µM
Cc1cc2c(cc1Br)NC(=O)C2=C1Nc2ccccc2C1=NO [6-bromo-5-methylindirubin-3'-oxime] | – | – | – | – | – | LdGSK-3 inhibition (in words) (LdGSK-3 [7]): inhibited
N#Cc1cc(-c2ccnc(Nc3cccc(CN4CCOCC4)c3)n2)ccc1NCCN [Compound 128] | – | – | – | – | – | IC50 (hGSK-3β [6]; Table 2): 1.32 ± 0.35 µM; IC50 (LdGSK-3 [1]; Table 2, read-out: LdGSK-3 IC50): 1.7 µM; % inhibition @ 10µM (initial screening on LdGSK3) (LdGSK-3 [1]; Table S2, 10 µM): 99.46±0.78%; percentage of inhibition of LdGSK-3 (LdGSK-3 [1]; assayed at 10 µM): higher than 50%
COc1cccc(CC(=O)Nc2nc3ccc(OC)cc3s2)c1 [Compound 24] | < 20 | > 50 | > 50 | – | 7.33 ± 0.15 | –
O=C(CCl)c1cc(Cl)sc1Cl [Compound 8] | – | 4.4 ± 0.1 | 2.4 ± 0.4 | 3.6 ± 0.5 | – | IC50 (LdGSK-3 [1]; [8]): 10.3 ± 2 µM; IC50 (hGSK-3β [5]; ref 4 (supplement)): 5 µM
CCOC(=O)c1sc(NC(=O)CCc2cc(OC)c(OC)c(OC)c2)nc1C [Compound 22] | < 20 | > 50 | > 50 | – | 7.04 ± 0.27 | –
O=C(CCl)c1ccc(Cl)cc1 [Compound 7] | – | 6.6 ± 0.5 | 0.5 ± 0.1 | 7.3 ± 1 | – | IC50 (LdGSK-3 [1]; [8]): 7.5 ± 1.4 µM
